Test results taken from patent US9801922B2, “Compositions and methods of treating cancer” (UNIVERSITY OF IOWA RESEARCH FOUNDATION, priority 2011, dated 2017).

What was measured:
Sum159 xenograft tumors = experiment: ALDH+ cells in Sum159 xenografts in vivo; design: species or system nude mice; details: 100 μM DTPP in drinking water 2 weeks; BSO 675 mg/kg i.p.; Au 2.7 mg/kg i.p.
Protocol: FIGS. 1A-D: BSO, DTPP and AUR treated SUM159, MDA-MB231 and HMEC Clonogenic survival. In Panel A (SUM 159), B (MDA-MB231) and C(HMEC), 150,000 cells/dish SUM159 or MDA-MB231 and 300,000 cells/dish were plated in 60 mm tissue culture dishes. After 48 hours, cells were given fresh complete HMECs media and treated with 100 μM BSO+/1 μM DTPP for 24 hours. 500 nM AUR were added 15 mins before the trypsinization of cells for clonogenic survival assay. In panel A-C, The error bars represent mean±1 SD of n=1 treatment dishes done in 3 separate experiments where each treatment dish was used to prepare 6-10 replicate cloning dishes for analysis. *p<0.001 as compared to Control. […] Mice growing Sum159 xenograft tumors were treated with 100 μM DTPP in drinking water for 2 weeks followed by i.p. injections of BSO 675 mg/kg followed in 2 hrs with Au 2.7 mg/kg. The day following injections tumors were harvested, digested and stained for ALDH positive cells. Each bar represents an average of at least three tumors. Error bars are SEM. *p<0.05 vs. control.
To address this question, SUM159 were treated with these drugs as described in FIG. 1, and aldehyde dehydrogenase (ALDH) activity, a marker of cancer stem cells was examined by ALDEFLUOR assay. […]

HMECs = experiment: CDCFH2 / CDCF probe labeling (intracellular hydroperoxides), HMEC; assay type: cell-based, human; details: oxidation-insensitive probe
Protocol: (§1) FIGS. 5A-5D: CDCFH2 oxidation sensitive and CDCF oxidation insensitive probe labeling of BSO, DTPP, and AUR exposed SUM159 and HMECs cells. Asynchronously growing cultures of SUM159 (Panels A, B) and HMECs (Panes C, D) were plated and treated as described in FIG. 1. Monolayer cultures were harvested and trypsinized, washed once with PBS then labeled in PBS with either CDCFH2 (Panesl A, C) or CDCF (Panels B, D)(10 μg/mL, in 0.1% DMSO 15 minutes) at 37° C. Mean fluorescence intensity (MFI) of 10,000 cells was analyzed by flow cytometry. Samples were assayed in triplicate; Mean±1 SEM of 3 separate experiments containing 3 treatment dishes per group (n=9), *p<0.001 as compared to Control.
Measurement of Intracellular Hydroperoxides: Steady-state levels of hydroperoxides were estimated using the oxidation sensitive {5-(and-6)-carboxy-2′,7′-dichlorodihydrofluorescein diacetate, (CDCFH2)} and oxidation-insensitive {5-(and-6)-carboxy-2′,7′-dichlorofluorescein diacetate, (CDCF)} fluorescent dyes purchased from Molecular Probes. Cells were plated and treated with BSO, DTPP and AUR as described above. […] Samples were analyzed using a FACScan flowcytometer (Becton Dickinson Immuno-cytometry System, INC., Mountain View, Calif.) (excitation 488 nm, emission 530 nm band-pass filter). The MFI of 10,000 cells was analyzed in each sample and corrected for autofluorescence from unlabeled cells. […]

SUM159 cells [1] = experiment: CDCFH2 / CDCF probe labeling (intracellular hydroperoxides), SUM159; assay type: cell-based, human; details: oxidation-sensitive probe
Protocol: as §1
FIG. 9: Catalase inhibitable CDCFH2 oxidation in BSO, DTPP, and AUR exposed SUM159 cells. […] Mean fluorescence intensity (MFI) of 10,000 cells was analyzed by flow cytometry. […]
Measurement of Intracellular Hydroperoxides: Steady-state levels of hydroperoxides were estimated using the oxidation sensitive {5-(and-6)-carboxy-2′,7′-dichlorodihydrofluorescein diacetate, (CDCFH2)} and oxidation-insensitive {5-(and-6)-carboxy-2′,7′-dichlorofluorescein diacetate, (CDCF)} fluorescent dyes purchased from Molecular Probes. […] Samples were analyzed using a FACScan flowcytometer (Becton Dickinson Immuno-cytometry System, INC., Mountain View, Calif.) (excitation 488 nm, emission 530 nm band-pass filter). […]

A375 melanoma cells = experiment: MTT survival fraction analysis, A375; assay type: cell-based
SUM159 cells [2] = experiment: DHE oxidation (intracellular superoxide); assay type: cell-based, human
Protocol: FIG. 10: DHE oxidation of BSO,DTPP and AUR exposed SUM159 cells. Asynchronously growing cultures of SUM159 were plated and treated as described in FIG. 1. Monolayer cultures were harvested and trypsinized, washed once with PBS and labeled 40 minutes with 5 μM DHE (in 0.1% DMSO) in PBS containing 5 mM pyruvate at 37° C. Each sample was then analyzed for the Mean fluorescence Intensity (MFI) of 10,000 cells by flow cytometry. Samples were assayed in triplicate; mean±1 SD of 2 experiment containing treatment dishes per group (n=6). *p<0.001 as compared to Control.
Estimation of intracellular superoxide levels using Dihydroethidium (DHE) oxidation: Steady-state levels of superoxide were estimated using the fluorescent dyes, dihydroethidium (DHE) purchased from Molecular Probes (Eugene, Oreg.). Cells were plated and treated for as described earlier. On day 6, the cells were trypsinized and washed with 5 mM/L pyruvate containing PBS once then labeled with DHE ([…], in 0.1% DMSO, 40 min) at 37° C. After labeling, cells were kept on ice. Samples were analyzed using a FACScan flowcytometer (Becton Dickinson Immunocytometry System, INC., Mountain View, Calif.) (excitation 488 nm, emission 585 nm band-pass filter). The mean fluorescence intensity (MFI) of 10,000 cells was analyzed in each sample and corrected for autofluorescence from unlabeled cells. The MFI data was normalized to control levels.

SMILES	effect on ALDH positive cells in xenografts, in words (Sum159 xenograft tumors)	CDCF labeling signal relative to control (HMECs) [fold]	increase in CDCFH2 oxidation compared to control (SUM159 cells [1]) [fold]	cytotoxicity in the absence of BSO, in words (A375 melanoma cells)	increase of DHE oxidation (SUM159 cells [2]) [fold]
CC[PH](CC)(CC)[Au][S][C@@H]1O[C@H](COC(C)=O)[C@@H](OC(C)=O)[C@H](OC(C)=O)[C@H]1OC(C)=O [AUR, S-triethylphosphinegold(I)-2,3,4,6-tetra-O-acetyl-1-thio-β-D-glucopyranoside]	decrease of ALDH+cells	–	–	–	–
CCCCS(=N)(=O)CCC(N)C(=O)O [BSO, L-buthionine-[S,R]-sulfoximine, reference compound]	decrease of ALDH+cells	–	–	–	–
CCCCCCCCCC[P+](c1ccccc1)(c1ccccc1)c1ccccc1 [DTPP, Decyl-Triphenylphosphonium]	–	2	2	intermediate cytotoxicity	1.5
